# Source: patent US7696408B2, “Method to enhance Agrobacterium-mediated transformation of plants” (Regents of the University of Minnesota, priority 1999, dated 2010)
# Entries after “also recorded” stand apart in the source; their conditions may differ.
# What was measured:
# soybean = assay: Production of transgenic soybean plants; parameters: species or system Glycine max; settings: cysteine 400-1000 mg/l
# soybean explants = assay: Enzymatic browning and growth of soybean explants after co-cultivation; assay type: cell-based, Glycine max; settings: for enzymatic browning of soybean explants: cysteine (e.g., 400-1000 mg/l) in solid co-cultivation medium
# fava bean explants = assay: Enzymatic browning of fava bean explants; assay type: cell-based; settings: cysteine (e.g., 400-1000 mg/l) in solid co-cultivation medium
# [1] = tested on: soybean cot-node explants; assay: GUS transient expression on soybean cot-node explants after 5-day co-cultivation with Agrobacterium (T-DNA delivery); assay type: cell-based, Glycine max
# Source text: For each seedling, the roots and the majority of the hypocotyl were removed approximately 3-5 mm below the cotyledonary node by cutting the hypocotyl with a scalpel (Hinchee et al., 1998). The two cotyledons were then separated by cutting vertically through the hypocotyl region resulting in two explants. The epicotyl was subsequently removed on both explants, including all primary leaves and shoot meristems, and both the axillary bud and cotyledonary node were wounded by cutting about 10 times with a scalpel blade perpendicular to the hypocotyl. After all explants in a set were wounded (about 50), they were placed in a 25×100 mm petri plate containing 50 ml co-culture suspension for 30 minutes or inoculated into the 25 ml co-cultivation/Agrobacterium suspension for 30 minutes. The explants were then cultured on an agar-solidified co-culture media (0.5%) either without the addition of a test agent (e.g., cysteine) in 15×100 mm petri plates on top a sterile Whatman®#1 filter paper; five explants per plate with adaxial side down. Five plates were stacked together and wrapped in Parafilm®M then incubated at either 22° C. or 25° C. for 5 days in the dark.
# After 5 days, the explants were washed in a liquid shoot induction media (B5 salts, MSIII iron stock, 3% sucrose, 3 mM MES, and filter sterilized B5 vitamins, 1.67 mg/l BAP, 100 mg/l cefotaxime, and 500 mg/l ticarcillin; pH 5.6) to remove excess Agrobacterium. Seven to ten explants from each cysteine level were washed in liquid shoot induction medium and placed in GUS histochemical stain (Jefferson et al., 1987). These explants were scored for GUS transient expression. Five to ten explants from each group were imbedded into a single 25×100 mm petri plate with solid shoot induction media (0.8% agar and agent, e.g., 400 mg/l cysteine) containing PPT concentrations of 1.33 mg/l, 3.33 mg/l, or 5.0 mg/l for selection. The plates were then incubated in a growth chamber with a fluctuating temperature between 18° C.-30° C. under a 18 hours light/6 hours dark cycle at 90-150 μE/m^2s.
# The level of infection was scored using the GUS gene as a phenotypic marker immediately after co-culture and again after 4 weeks in shoot induction media. As it can be difficult to score the explants after co-cultivation due to the variation among explants and, in some cases, a complete staining of the target tissues, 6 categories were formed to assess the success of infection: • 4) None=There were no GUS positive sectors on any of the explants; • 5) Very low=Not all explants have GUS positive sectors, however, some have discrete foci usually seen on the hypocotyl or cot-node region. • 6) Low=More than ¾ the explants have GUS positive sectors in discrete foci on the hypocotyl and the cot-node region, but the foci are not numerous (<20). • 7) Medium=More than ½ the explants have significant GUS positive sectors at the cot-node region and hypocotyl, some seen as long lines of cells or larger sectors. • 8) Good=More than ¾ the explants have significant staining at the hypocotyl, the entire cot-node region, and on the cotyledons. […] Almost all explants have regions that are completely GUS positive. To reduce bias, samples were chosen at random and the level of infection scored before noting the treatment conditions. Samples that were between two categories are marked accordingly; those samples that resembled one category more than another were marked with a capital “X” and the other with a lowercase “x”.
# Wounded soybean cot-node explants prepared from the cultivar ‘Bert’ were co-cultivated with Agrobacterium on solid co-cultivation medium containing various levels of cysteine for 5 days.
structure (smiles),measurement,setting,value
N[C@@H](CS)C(=O)O [L-cysteine],increase in production of transgenic plants,soybean,2 fold
same,callus growth on the hypocotyl,"soybean explants; co-cultivated in 1000 mg/l cysteine, 28 days",little callus growth on the hypocotyl
same,growth of the hypocotyls of explants,"soybean explants; co-cultivated in 800 and 1000 mg/l cysteine, experiment #7",little to no growth of the hypocotyls
same,enzymatic browning of soybean explants,soybean explants; listed as Cysteine,decreased
same,enzymatic browning of soybean explants,soybean explants; listed as cysteine,less browning
same,enzymatic browning of fava bean explants,fava bean explants,decreased
same,"infection, cysteine in solid co-culture media (experiments #4-#6)",[1]; 0 or 400 mg/l cysteine in liquid and solid co-culture media,increased infection
same,average frequency of explants containing a GUS+ focus at the cot-node,"[1]; 300 to 1000 mg/l cysteine in solid co-cultivation medium, Bert, AGL1 pBSF16, 5 days, 30% with no cysteine",~100%
same,"GUS staining scores, difference from 0 mg/l cysteine","[1]; 400 and 1000 mg/l cysteine, α=0.05 (P<0.001)",significantly differ
same,"frequency of explants with at least one GUS+ focus, difference from 0 mg/l cysteine","[1]; 400 and 1000 mg/l cysteine, α=0.05 (P<0.001), FIG. 1D",significantly differ
same,"frequency of explants with GUS+ foci at the cot-node, all genotypes","[1]; 5 days co-cultivation, MN0901, A3237, MN1801, MN0301, Granite, MN1401, MN1301, Lambert",increase
same,GUS+ staining after co-cultivation,"[1]; Bert, LBA4404 pTOK233, agent in solid co-cultivation media, concentrations of Table 1, 5-day incubation",increases
same,infection (% of explants) at the entire cot-node region,"[1]; after 5-day incubation, cysteine containing solid co-culture media (100-400 mg/l L-cysteine), genotypes Bert, MN1301, MN0901, 50% of control explants",80-100%
same,GUS+ foci at the 5-day interval,[1]; amended to solid co-cultivation media,increase
same,number of GUS+ foci per explant five days post-inoculation,"[1]; cysteine 400-1000 mg/l, eight independent experiments",increase
same,frequency of GUS positive sectors/foci with strain LBA4404 pTOK233,"[1]; cysteine during co-cultivation vs control, 5 days",exceed in the frequency of GUS positive sectors over the control explants; also recorded: greater
same,GUS positive sectors after co-cultivation (experiments #1-#3),"[1]; cysteine, especially 300 and 400 mg/l, MN1301, MN0901, Bert",extensive GUS positive sectors
same,frequency of explants with at least one GUS+ focus at the cot-node,"[1]; five days post-inoculation, cysteine 400-1000 mg/l, eight independent experiments, 30% without",100%
